# Data as given in patent US12568967B2, “Compositions comprising pyridine carboxylate herbicides with synthetic auxin herbicides or auxin transport inhibitors” (priority 2018, dated 2026).
# Experiments:
# [1] = tested on: Matricaria discoidea (pineapple weed, MATMT); test: Greenhouse postemergence trial MATMT; format: in vivo
# [2] = tested on: Papaver rhoeas (corn poppy, PAPRH); test: Greenhouse postemergence trial PAPRH; format: in vivo; conditions: for % visual injury: c1-3 Compound A 7.5/10/15
# [3] = tested on: Veronica hederifolia (ivyleaf speedwell, VERHE); test: Greenhouse postemergence trial VERHE; format: in vivo; conditions: for % visual injury: c1-3 Compound A 7.5/10/15
# Experimental: (§1) Seeds of the desired test plant species were planted in a 90:10% v/v (volume/volume) mixture of PRO-MIX® BX (Premier Tech Horticulture, Quakertown, PA, USA) and PROFILE® GREENS GRADE™ (Profile Products LLC, Buffalo Grove, IL, USA) planting mixture, which typically has a pH of 5.2 to 6.2 and an organic matter content of at least 50 percent, in plastic pots with a surface area of 103.2 square centimeters (cm^2). […] The plants were grown for 7-36 days (d) in a greenhouse with an approximate 14-hour (h) photo-period which was maintained at about 23° C. during the day and 22° C. during the night. Nutrients and water were added on a regular basis and supplemental lighting was provided with overhead metal halide 1000-Watt lamps as necessary. The plants were employed for testing when they reached the second or third true leaf stage.
# (§2) Emulsifiable concentrates of each of each pyridine carboxylate herbicide (Compound A or Compound B) were prepared at 100 grams acid equivalent per liter (g ae/L). The emulsifiable concentrates also included a safener, cloquintocet-mexyl, at 120 grams active ingredient per liter (g ai/L), unless otherwise noted below. An aliquot of each emulsifiable concentrate was placed in a 25 mL glass vial and diluted with an aqueous mixture of 1.25% (v/v) ACTIROB® B esterified rapeseed oil (Bayer Crop Science, Research Triangle Park, NC, USA) or MSO® Concentrate with LECI-TECH® methylated soybean oil (Loveland Products, Loveland, CO, USA) to obtain concentrated stock solutions at the highest application rate for each herbicide, based upon a 12 milliliter (mL) application volume at a rate of 187 liters per hectare (L/ha). The concentrated stock solutions were further diluted with an aqueous mixture of 1.25% v/v ACTIROB® B or MSO® Concentrate with LECI-TECH® to obtain stock solutions at reduced application rates for each herbicide. Spray solutions of the herbicide combinations (Compound A or Compound B plus synthetic auxin herbicide or auxin transport inhibitor) were prepared by adding weighed amounts or aliquots of the synthetic auxin herbicide or auxin transport inhibitor to the stock solutions of Compound A or Compound B to form 12-mL spray solutions in two-way combinations.
# (§3) The spray solutions were applied to the plant material with an overhead Mandel track sprayer equipped with 8002E nozzles calibrated to deliver 187 L/ha over an application area of 0.503 square meters (m^2) at a spray height of 18 inches (43 centimeters (cm)) above the average plant canopy. Control plants were sprayed in the same manner with the solvent blank. All pyridine carboxylate herbicide (component a) application rates are given as “g ae/ha” and all synthetic auxin herbicide or auxin transport inhibitor (component b) application rates are given as “g ai/ha.”
# (§4) The treated plants and control plants were placed in a greenhouse as described above and watered by sub-irrigation to prevent wash-off of the test compounds. After 20-22 d, the condition of the test plants as compared with that of the control plants was determined visually and scored on a scale of 0 to 100 percent where 0 corresponds to no injury and 100 corresponds to complete kill.
# [4] = tested on: Anthemis arvensis (field chamomile, ANTAR); test: Greenhouse postemergence trial ANTAR; format: in vivo
# [5] = tested on: Salsola kali (Russian thistle, SASKR); test: Greenhouse postemergence trial SASKR; format: in vivo; conditions: Salsola kali, post-emergence; SASKR; Aminopyralid 10 g/ha; read-out: % visual injury Obs;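 further: greenhouse plants sprayed at second or third true leaf stage, injury rated by eye after 20-22 d against solvent-blank controls, 0 meaning no injury, 100 complete kill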
# [6] = tested on: Triticum aestivum (winter wheat, TRZAW); test: Greenhouse postemergence crop phytotoxicity TRZAW; format: in vivo
# [7] = tested on: Hordeum vulgare (winter barley, HORVW); test: Greenhouse postemergence crop phytotoxicity HORVW; format: in vivo
# Experimental: as §1, §2, §3, §4
# [8] = tested on: Cyanus segetum (cornflower, CENCY); test: Greenhouse postemergence trial CENCY; format: in vivo
# [9] = tested on: Stellaria media (chickweed, STEME); test: Greenhouse postemergence trial STEME; format: in vivo; conditions: for % visual injury: c1-3 Compound A 7.5/10/15
# [10] = tested on: Sinapis arvensis (wild mustard, SINAR); test: Greenhouse postemergence trial SINAR; format: in vivo; conditions: Mutarda arvensis, post-emergence; SINAR; Aminopyralid 10 g/ha; read-out: % visual injury Obs
# Experimental: (§5) The plants were grown for 7-36 days (d) in a greenhouse with an approximate 14-hour (h) photo-period which was maintained at about 23° C. during the day and 22° C. during the night. Nutrients and water were added on a regular basis and supplemental lighting was provided with overhead metal halide 1000-Watt lamps as necessary. The plants were employed for testing when they reached the second or third true leaf stage.
# (§6) The emulsifiable concentrates also included a safener, cloquintocet-mexyl, at 120 grams active ingredient per liter (g ai/L), unless otherwise noted below.
# (§7) Control plants were sprayed in the same manner with the solvent blank. All pyridine carboxylate herbicide (component a) application rates are given as “g ae/ha” and all synthetic auxin herbicide or auxin transport inhibitor (component b) application rates are given as “g ai/ha.”
# as §4
# [11] = tested on: Triticum aestivum (spring wheat, TRZAS); format: in vivo
# Experimental: as §1, §2, §3, §4
# [12] = tested on: Viola tricolor (wild pansy, VIOTR); test: Greenhouse postemergence trial VIOTR; conditions: for % visual injury: c1-3 Compound A 7.5/10/15;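 on all read-outs here: greenhouse plants sprayed at second to third true leaf stage, injury rated visually after 20-22 d against solvent-blank sprayed controls, 0 meaning no injury and 100 complete kill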
# Experimental: as §1, §2, §3, §4
# [13] = tested on: Veronica persica (bird's-eye speedwell, VERPE); test: Greenhouse postemergence trial VERPE; format: in vivo
# Experimental: as §1, §2, §3, §4
# [14] = tested on: Brassica napus (winter rape, BRSNW); test: Greenhouse postemergence trial BRSNW; format: in vivo; conditions: Brassica napus, post-emergence, read-out: % visual injury Obs
# [15] = tested on: Hordeum vulgare (spring barley, HORVS); format: in vivo
# [16] = tested on: Capsella bursa-pastoris (shepherd's purse, CAPBP); test: Greenhouse postemergence trial CAPBP; format: in vivo; conditions: for % visual injury: c1-3 Compound A 7.5/10/15
# [17] = tested on: Matricaria chamomilla (wild chamomile, MATCH); test: Greenhouse postemergence trial MATCH; format: in vivo; conditions: Matricaria chamomilla, post-emergence; MATCH; Aminopyralid 10 g/ha; read-out: % visual injury Obs;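 further: greenhouse plants sprayed at second to third true leaf stage, injury rated by eye 20-22 d later versus solvent-blank controls on 0–100 scale, 0 no injury, 100 complete kill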
# Experimental: as §5, §6, §7, §4
# [18] = tested on: Matricaria inodora (false chamomile, MATIN); test: Greenhouse postemergence trial MATIN; format: in vivo; conditions: for % visual injury: c1-3 Compound A 7.5/10/15
# Experimental: as §1, §2, §3, §4
# [19] = tested on: Polygonum convolvulus (wild buckwheat, POLCO); test: Greenhouse postemergence trial POLCO; format: in vivo; conditions: Fallopia convolvulus, post-emergence, read-out: % visual injury Obs
# [20] = tested on: Kochia scoparia (kochia, KCHSC); test: Greenhouse postemergence trial KCHSC; format: in vivo; conditions: Bassia scoparia, post-emergence; KCHSC; Aminopyralid 10 g/ha; read-out: % visual injury Obs
# [21] = tested on: Papaver rhoeas (corn poppy), herbicide-resistant (PAPRH-R); test: Greenhouse postemergence trial PAPRH-R; format: in vivo; conditions: for % visual injury: c1-3 Compound A 7.5/10/15
# [22] = tested on: Lamium purpureum (purple deadnettle, LAMPU); test: Greenhouse postemergence trial LAMPU; conditions: for % visual injury: c1-3 Compound A 7.5/10/15
# Experimental: as §5, §6, §7, §4
# [23] = tested on: Cirsium arvense (Canadian thistle, CIRAR); test: Greenhouse postemergence trial CIRAR; format: in vivo; conditions: Cirsium arvense, post-emergence; CIRAR; Aminopyralid 10 g/ha; read-out: % visual injury Obs
# Experimental: as §1, §2, §3, §4
# [24] = tested on: Galium aparine (cleavers, GALAP); test: Greenhouse postemergence trial GALAP; format: in vivo; conditions: c1-3 Compound A 7.5/10/15
# Experimental: as §1, §2, §3, §4
# [25] = tested on: Viola arvensis (field violet, VIOAR); test: Greenhouse postemergence trial VIOAR; format: in vivo
# Experimental: as §1, §2, §3, §4
# [26] = c1-3 Compound A 7.5/10/15, c4 Aminopyralid 5, c5-7 A 7.5/10/15 + Aminopyralid 5 g/ha
# [27] = Papaver rhoeas, post-emergence, read-out: % visual injury Obs
# [28] = c4 Aminopyralid 5, c5-7 A 7.5/10/15 + Aminopyralid 5 g/ha
# [29] = c4-6 Clopyralid 30/60/120, c7-9, c10-12, c13-15 A 7.5/10/15 + Clopyralid 30, 60, 120 g/ha
smiles,measurement,setting,value
"Nc1cc(Cl)nc(C(=O)O)c1Cl [Aminopyralid, aminopyralid, reference compound]",pest or weed control at 10 g/ha,"[1]; Matricaria discoidea, post-emergence, read-out: % visual injury Obs",0%
same,% visual injury,[1]; [26],0%
same,pest or weed control at 10 g/ha,[2]; [27],65%
same,% visual injury,[2]; [28],30%
same,pest or weed control at 10 g/ha,"[3]; Veronica hederifolia, post-emergence, read-out: % visual injury Obs",25%
same,% visual injury,[3]; [28],0%
same,pest or weed control at 10 g/ha,"[4]; Anthemis arvensis, post-emergence, read-out: % visual injury Obs",60%
same,% visual injury,[4]; [26],10%
same,pest or weed control at 10 g/ha,[5],20%
same,% visual injury Obs,"[6]; TRZAW, Aminopyralid 10 g/ha",0%
same,% visual injury (crop phytotoxicity),[6]; [26],0%
same,% visual injury Obs,"[7]; HORVW, Aminopyralid 10 g/ha",0%
same,% visual injury (crop phytotoxicity),[7]; [26],0%
same,pest or weed control at 10 g/ha,"[8]; Centaurea cyanus, post-emergence, read-out: % visual injury Obs",65%
same,% visual injury,[8]; [26],50%
same,pest or weed control at 10 g/ha,"[9]; Stellaria media, post-emergence, read-out: % visual injury Obs",5%
same,% visual injury,[9]; [28],0%
same,pest or weed control at 10 g/ha,[10],20%
same,% visual injury Obs,"[11]; TRZAS, Aminopyralid 10 g/ha",0%
same,% visual injury (crop phytotoxicity),[11]; [26],0%
same,pest or weed control at 10 g/ha,"[12]; Viola tricolor, post-emergence, read-out: % visual injury Obs",10%
same,% visual injury,[12]; [28],0%
same,pest or weed control at 10 g/ha,"[13]; Veronica persica, post-emergence, read-out: % visual injury Obs",10%
same,% visual injury,[13]; [26],0%
same,plant injury at 10 g/ha,[14],10%
same,% visual injury Obs,"[15]; HORVS, Aminopyralid 10 g/ha",0%
same,% visual injury (crop phytotoxicity),[15]; [26],0%
same,pest or weed control at 10 g/ha,"[16]; Capsella bursa-pastoris, post-emergence, read-out: % visual injury Obs",0%
same,% visual injury,[16]; [28],0%
same,pest or weed control at 10 g/ha,[17],10%
same,pest or weed control at 10 g/ha,"[18]; Tripleurospermum inodorum, post-emergence, read-out: % visual injury Obs",60%
same,% visual injury,[18]; [28],10%
same,pest or weed control at 10 g/ha,[19],75%
same,pest or weed control at 10 g/ha,[20],10%
same,pest or weed control at 10 g/ha,[21]; [27],65%
same,% visual injury,[21]; [28],50%
same,pest or weed control at 10 g/ha,"[22]; Lamium purpureum, post-emergence, read-out: % visual injury Obs",10%
same,% visual injury,[22]; [28],0%
same,pest or weed control at 10 g/ha,[23],60%
same,% visual injury,[24]; [28],60%
same,pest or weed control at 10 g/ha,"[25]; Viola arvensis, post-emergence, read-out: % visual injury Obs",10%
same,% visual injury,[25]; [26],25%
"O=C(O)c1nc(Cl)ccc1Cl [Clopyralid, clopyralid, reference compound]",% visual injury,[2]; [29],0%
same,% visual injury,[3]; [29],0%
same,% visual injury,[9]; [29],0%
same,% visual injury,[12]; [29],0%
same,% visual injury,[16]; [29],0%
same,% visual injury,[18]; [29],35%
same,% visual injury,[21]; [29],0%
same,% visual injury,[22]; [29],0%
same,% visual injury,[24]; [29],0%
